Data published in PMC7980221 (Molecular Cell, 2021).
Where two headings read alike, the source gives them in different places.

Assays:
[1] = system: endogenous sodium currents of MDA-MB-231 cells (nNav1.5, Nav1.7); experiment: Voltage clamp of endogenous sodium currents in MDA-MB-231 cells; type: cell-based; details: Homo sapiens, MDA-MB-231, read-out: Potency of sodium current inhibition (IC50), MDA-MD-231 cells
[2] = target: NavMs D220E mutant channel (Magnetococcus marinus, UniProt A0L5S6, D220E); experiment: cell-based; type: cell-based
[3] = target: NavMs E227D mutant channel (Magnetococcus marinus, UniProt A0L5S6, E227D); experiment: cell-based
[4] = target: T1, NavMs (Magnetococcus marinus, UniProt A0L5S6); experiment: Mechanism and kinetics of NavMs INa inhibition; type: cell-based
[5] = cited from earlier work
[6] = target: T1, NavMs; experiment: cell-based
[7] = target: hNav1.2 (Homo sapiens, UniProt Q99250); experiment: Whole-cell patch-clamp INa inhibition, hNav1.2 in HEK293 cells; type: cell-based
[8] = system: ER; details: cited from earlier work
[9] = target: NavMs F208L mutant (NavMsL) (Magnetococcus marinus) (UniProt A0L5S6); experiment: crystal structure

hNav1.2, sequence (Q99250 whole entry): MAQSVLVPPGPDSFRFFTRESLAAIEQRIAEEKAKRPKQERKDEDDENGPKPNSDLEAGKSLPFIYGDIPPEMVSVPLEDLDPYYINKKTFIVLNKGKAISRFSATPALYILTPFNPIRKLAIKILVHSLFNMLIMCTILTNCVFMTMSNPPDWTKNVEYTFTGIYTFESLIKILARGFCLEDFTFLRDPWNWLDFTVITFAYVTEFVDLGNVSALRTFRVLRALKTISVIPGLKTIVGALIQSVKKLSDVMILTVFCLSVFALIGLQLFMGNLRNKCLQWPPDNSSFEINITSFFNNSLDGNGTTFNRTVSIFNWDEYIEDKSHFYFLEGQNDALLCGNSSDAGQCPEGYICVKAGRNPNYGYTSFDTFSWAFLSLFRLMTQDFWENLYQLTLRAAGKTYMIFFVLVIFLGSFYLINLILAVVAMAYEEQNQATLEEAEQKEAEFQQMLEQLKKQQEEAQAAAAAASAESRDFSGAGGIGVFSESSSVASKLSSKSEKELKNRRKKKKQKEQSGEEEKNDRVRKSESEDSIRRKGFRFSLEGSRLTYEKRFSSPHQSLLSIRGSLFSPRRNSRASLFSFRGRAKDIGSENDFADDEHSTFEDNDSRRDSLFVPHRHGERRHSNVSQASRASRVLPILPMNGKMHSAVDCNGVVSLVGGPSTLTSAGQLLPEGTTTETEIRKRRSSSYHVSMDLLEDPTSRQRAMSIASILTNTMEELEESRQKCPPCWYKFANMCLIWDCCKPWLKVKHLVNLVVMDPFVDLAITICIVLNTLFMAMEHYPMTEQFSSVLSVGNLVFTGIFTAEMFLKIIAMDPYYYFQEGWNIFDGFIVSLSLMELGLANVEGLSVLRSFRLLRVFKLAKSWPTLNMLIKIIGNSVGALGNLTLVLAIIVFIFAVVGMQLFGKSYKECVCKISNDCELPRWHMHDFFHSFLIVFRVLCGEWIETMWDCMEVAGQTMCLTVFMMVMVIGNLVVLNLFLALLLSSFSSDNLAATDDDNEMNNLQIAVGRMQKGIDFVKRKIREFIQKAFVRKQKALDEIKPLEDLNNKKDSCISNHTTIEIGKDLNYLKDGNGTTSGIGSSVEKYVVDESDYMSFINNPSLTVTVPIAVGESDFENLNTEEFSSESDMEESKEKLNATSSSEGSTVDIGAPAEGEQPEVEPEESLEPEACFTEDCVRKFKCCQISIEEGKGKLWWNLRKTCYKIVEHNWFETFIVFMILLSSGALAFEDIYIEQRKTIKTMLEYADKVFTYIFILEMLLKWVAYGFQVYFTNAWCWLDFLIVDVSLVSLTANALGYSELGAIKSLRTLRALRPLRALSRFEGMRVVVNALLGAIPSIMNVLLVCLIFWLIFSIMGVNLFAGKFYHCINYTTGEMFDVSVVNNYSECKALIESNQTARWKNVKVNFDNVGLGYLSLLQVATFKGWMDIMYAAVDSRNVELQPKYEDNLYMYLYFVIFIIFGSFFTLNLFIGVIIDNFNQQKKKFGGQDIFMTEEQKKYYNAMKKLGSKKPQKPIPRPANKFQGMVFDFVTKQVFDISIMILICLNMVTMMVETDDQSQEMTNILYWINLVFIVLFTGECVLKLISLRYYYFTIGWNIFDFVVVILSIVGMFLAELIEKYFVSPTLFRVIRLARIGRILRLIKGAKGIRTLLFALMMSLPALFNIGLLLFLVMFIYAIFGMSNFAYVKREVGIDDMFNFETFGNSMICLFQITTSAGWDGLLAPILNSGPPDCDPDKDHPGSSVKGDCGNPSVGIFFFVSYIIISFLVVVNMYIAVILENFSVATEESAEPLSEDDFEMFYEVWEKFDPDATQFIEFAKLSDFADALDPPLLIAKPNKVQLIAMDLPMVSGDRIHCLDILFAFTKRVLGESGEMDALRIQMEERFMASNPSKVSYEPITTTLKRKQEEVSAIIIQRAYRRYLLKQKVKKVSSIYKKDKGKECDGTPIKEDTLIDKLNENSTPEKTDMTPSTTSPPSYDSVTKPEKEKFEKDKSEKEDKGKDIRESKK

CC/C(=C(\c1ccc(O)cc1)c1ccc(OCCN(C)C)cc1)c1ccccc1 [4OH-Tam, 4-hydroxytamoxifen]
IC50 [1]: 890 nM
IC50 [2]: 3600 ± 140 nM
Loss in free energy of binding (ΔG°) [2]: 1.5 kcal/mol
Average slope of the Hill fit, D220E, HEK cells ([2]; value in parentheses, error SD): 1.17 ± 0.1
IC50 [3]: 2800 ± 160 nM
Average slope of the Hill fit, E227D, HEK cells ([3]; value in parentheses, error SD): 1.13 ± 0.1
Delay of rate of recovery from inactivation (τrec) following drug treatment [4]: ~10 fold
INa inhibition with 7 ms vs 150 ms depolarization trains, times less [4]: 3.4 times
Kinetics of INa inhibition (τon), times slower than cadmium [4]: 16 times
Shift of voltage dependence of activation and inactivation [4]: no significant shifts in either parameter
Potency in vivo as an anti-estrogen relative to tamoxifen [5]: 30- to 100 fold
IC50 [6]: 297 ± 75 nM
Average slope of the Hill fit, NavMs, HEK cells ([6]; value in parentheses, error SD): 1.14 ± 0.1
IC50 [7]: 2100 ± 140 nM
Average slope of the Hill fit, NaV1.2, HEK cells ([7]; value in parentheses, error SD): 0.96 ± 0.1

CC/C(=C(/c1ccc(O)cc1)c1ccc(OCCN(C)C)cc1)c1ccccc1.Cl [E-4OH-Tam, E-4-Hydroxytamoxifen hydrochloride]
Average slope of the Hill fit, NavMs, HEK cells ([6]; value in parentheses, error SD): 1.15 ± 0.1
Average slope of the Hill fit, NaV1.2, HEK cells ([7]; value in parentheses, error SD): 0.94 ± 0.1

CC/C(=C(\c1ccc(O)cc1)c1ccc(OCCNC)cc1)c1ccccc1 [Endoxifen]
IC50 [6]: 328 ± 89 nM
Average slope of the Hill fit, NavMs, HEK cells ([6]; value in parentheses, error SD): 1.09 ± 0.1
IC50 [7]: 3100 ± 130 nM
Average slope of the Hill fit, NaV1.2, HEK cells ([7]; value in parentheses, error SD): 0.97 ± 0.1

CC/C(=C(\c1ccccc1)c1ccc(OCCNC)cc1)c1ccccc1 [NM-Tam, N-desmethyltamoxifen]
Affinity for ER, times lower than that of tamoxifen [8]: ~100 times
Average slope of the Hill fit, NavMs, HEK cells [6]: 1.1 ± 0.16 μM (1.11 ± 0.1)
IC50 ([6]; read-out: Potency of sodium current inhibition (IC50), NavMs, HEK cells): 1100 nM
Average slope of the Hill fit, NaV1.2, HEK cells [7]: 3.2 ± 0.12 μM (0.96 ± 0.1)
IC50 ([7]; read-out: Potency of sodium current inhibition (IC50), NaV1.2, HEK cells): 3200 nM

CC/C(=C(\c1ccccc1)c1ccc(OCCN(C)C)cc1)c1ccccc1 [Tamoxifen]
Average slope of the Hill fit, NaV1.2, HEK cells [7]: 2.4 ± 0.11 μM (1.05 ± 0.1)
IC50 [7]: 2400 nM

CC/C(=C(\c1ccc(O)cc1)c1ccc(OCCN(C)C)cc1)c1ccccc1.Cl [Z-4OH-Tam, Z-4-Hydroxytamoxifen hydrochloride]
Average slope of the Hill fit, NavMs, HEK cells ([6]; value in parentheses, error SD): 1.05 ± 0.1
Average slope of the Hill fit, NaV1.2, HEK cells ([7]; value in parentheses, error SD): 0.95 ± 0.1

NavMs F208L mutant (NavMsL) (from UniProt A0L5S6 1-274) (natural protein)
stoichiometry N [9]: 4
